Experimental data taken from US20160368873A1, “Optically Active Form of Mepenzolate, and Ameliorating Agent for Chronic Obstructive Pulmonary Disease Which Contains Same as Active Ingredient” (LTT BIO-PHARMA CO., LTD., priority 2014, published 2016).

How the values were obtained:
ICR mice [1] = assay: Effect on porcine pancreatic elastase (PPE)-induced inflammation (2) (Test Example 4.2); assay type: in vivo; details: 7.5 μg/kg and 38 μg/kg via the airway once, PPE 20 U/kg 1 h later, BALF 6 h after PPE; for Total cell count in BALF: FIG. 9; for Neutrophil count in BALF: FIG. 10
Method: Then, broncho alveolar lavage fluid (BALF) was collected from the lung 6 hours after administration of porcine pancreatic elastase. The BALF was collected by washing the lung twice with saline containing heparin (50 U/mL) with the aid of a tracheostomy tube.
A total cell count of the collected BALF was measured by hemocytometer. The cells were centrifuged by using Cytospin 4 (registered trademark, manufactured by Thermo Electron Corporation) and then fixed with Diff-Quik reagent, and the neutrophil count was determined on the basis of the ratio of the neutrophil count to the total cell count.

ICR mice [2] = assay: Effect on porcine pancreatic elastase (PPE)-induced inflammation (1) (Test Example 4.1); assay type: in vivo; details: 38 μg/kg via the airway once, PPE 100 μg per mouse 1 h later, BALF 24 h after PPE, FIG. 8
Method: Then, broncho alveolar lavage fluid (BALF) was collected from the lung 24 hours after administration of porcine pancreatic elastase and a total cell count and a neutrophil count were measured.

[3] = target: T1, human M3 muscarinic receptor (Homo sapiens, UniProt P20309); assay: Receptor binding ability (in vitro) (1), [3H]NMS competitive inhibition (Test Example 2.1); details: CHO-K1 membrane fraction, 2.0 nM [3H]NMS
T1 construct: expressed in transfected cells; host or cells: CHO-K1 cells (membrane fraction)
Method: Nonspecific binding was measured in the presence of 1 μM atropine.
The resulting filter, which was dried and a solid scintillator, MeltiLex A (manufactured by PerkinElmer, Inc.) was melted thereon, was measured and quantified by using a β-counter (MicroBeta microplate scintillation counter (Trilux: manufactured by PerkinElmer, Inc.).

ICR mice [4] = assay: Effect on PPE-induced inflammation (3), cytokine and chemokines in BALF by ELISA (Test Example 4.3); assay type: in vivo; details: 38 μg/kg via the airway, PPE 20 U/kg, FIGS. 11 to 14
Method: The levels of cytokine and chemokine in broncho alveolar lavage fluid (BALF) were measured as indications of an effect on PPE-induced inflammation.
Specifically, TNF-α ([…]), which is a pro-inflammatory cytokine, was measured as a cytokine that is an inflammatory factor and a macrophage inflammatory protein (MIP-2), a monocyte chemotactic protein (MCP-1), and a keratinocyte-derived chemokine (KC) were measured as an inflammatory chemokine.
The measurement of such a cytokine and chemokines in the BALF was performed by ELISA.

[5] = Concentration in lung tissue after airway administration (Test Example 1); assay type: in vivo; details: ICR mice, airway administration 20 mg/kg, chiral HPLC
Method: The test samples were divided into 300 μL aliquots and subjected to ultrafiltration using an Amicon ultra-0.5 centrifugal filter.
The HPLC conditions were as follows.
Detector: Waters 2695 Alliance separation module and Waters 2996 photodiode array detector (manufactured by Waters Corporation)
Eluent: Solvent A (Water containing 0.1 M hexafluorophosphate)/Solvent B (acetonitrile)
Mobile Phase: 70% Solvent A/30% Solvent B
Measuring wavelength: 220 nm

ICR mice [6] = assay: Effect on methacholine-induced airway constriction (2) (Test Example 3.2); assay type: in vivo; details: 3.8 μg/kg via the airway, 1 h before nebulized methacholine, FIG. 7
Method: (§1) Increase in airway resistance induced by methacoline was measured.
4 to 6 week old ICR mice were anesthetized with chloral hydrate (500 mg/kg), a tracheostomy was performed, and a metal tube […] in diameter was inserted into the trachea.
The mice were mechanically ventilated at 150 respirations/minute with a displacement per one cycle of 8.7 mL/kg and a positive end-expiratory pressure of 2 to 3 cmH2O.
The mice were exposed to nebulized methacholine (5 mg/kg) for 20 seconds four times at intervals of 40 seconds to induce airway resistance by methacholine, and the airway resistance was measured by a snap shot technique.
(§2) One hour after administration, the mice received five exposures to nebulized methacoline by the above-mentioned method and the airway resistance at the time of each administration was measured.
The data were analyzed by using FlexiVent software.

ICR mice [7] = assay: Fecal pellet output (level of constipation occurrence) after application of stress (Test Example 5); assay type: in vivo; details: 4.7 mg/kg intratracheally, 1 h later one-hour restraint stress, FIG. 15
Method: 4 to 6 week old ICR mice were put under stress by placing the mice in a 50 mL tube for one hour, the tube ensuring free breathing but restraining free movement, and the fecal pellet output (the level of constipation occurrence) at that time was measured.
The level of constipation occurrence was monitored by measuring the fecal pellet output during the above-mentioned period.

ICR mice [8] = assay: Effect on methacholine-induced airway constriction (1) (Test Example 3.1); assay type: in vivo; details: 3.75 μg/kg via the airway, 1 h before nebulized methacholine, FIG. 5
Method: as §1
4 to 6 week old ICR mice received 1 mg/mL methacoline by nebulization over 20 seconds and this was repeated five times. After each administration of methacoline was completed, the airway resistance was measured by a snap shot technique. All the data were analyzed by using FlexiVent software.
as §2

[9] = target: T2, human M3 muscarinic receptor (hM3R) (Homo sapiens, UniProt P20309); assay: Receptor binding ability (in vitro) (2), [3H]NMS competitive inhibition, hM3R (Test Example 2.2); details: Table 2 and FIG. 3, compared to (R)-mepenzolate bromide and the racemate
T2 construct: expressed in transfected cells; host or cells: CHO-K1 cells (membrane fraction)
T2 sequence (P20309 whole entry): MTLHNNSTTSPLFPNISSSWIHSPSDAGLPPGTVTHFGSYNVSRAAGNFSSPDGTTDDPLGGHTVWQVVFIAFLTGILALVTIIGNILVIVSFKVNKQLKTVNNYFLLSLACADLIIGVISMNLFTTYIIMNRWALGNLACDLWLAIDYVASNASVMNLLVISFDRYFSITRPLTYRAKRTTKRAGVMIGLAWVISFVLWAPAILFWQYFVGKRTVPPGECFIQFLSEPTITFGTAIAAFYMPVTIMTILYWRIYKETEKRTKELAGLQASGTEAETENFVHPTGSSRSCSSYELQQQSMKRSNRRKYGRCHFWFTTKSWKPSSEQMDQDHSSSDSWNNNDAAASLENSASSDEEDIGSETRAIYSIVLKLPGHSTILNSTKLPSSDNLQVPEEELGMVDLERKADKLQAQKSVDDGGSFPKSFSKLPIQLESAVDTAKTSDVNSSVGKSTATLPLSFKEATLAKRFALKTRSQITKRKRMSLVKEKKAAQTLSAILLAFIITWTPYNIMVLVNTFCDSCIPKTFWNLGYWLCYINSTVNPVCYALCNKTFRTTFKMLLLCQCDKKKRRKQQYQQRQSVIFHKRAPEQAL
Method: Membrane fractions of CHO—K1 cells overexpressing a human M3 muscarinic receptor (hM3R) or CHO—K1 cells overexpressing a human M2 muscarinic receptor (hM2R) were used to measure receptor binding ability by competitive inhibition assay with 1-[N-methyl-^3H]scopolamine methyl bromide ([^3H]NMS, specific activity: 85.5 Cimmol). The protein concentration of the cell membrane was 10.0 μg/well and the [^3H]NMS concentration was 2.0 nM.
A binding buffer (phosphate buffer/saline) was added to the reagents to make a total volume of 200 μL. […]
The resulting filter was dried for 30 minutes, and then, fixed to a solid scintillator, MeltiLex A (melt-on scintillation sheet; manufactured by PerkinElmer, Inc.). The radioactivity remaining on the filter was measured in a MicroBeta Trilux microplate scintillation counter (manufactured by PerkinElmer, Inc.).
An experimental IC50 was calculated by using an experimentally obtained constant (κd) of [^3H]NMS for hM3R or hM2R and the concentration thereof, and then, the affinity at equilibrium was determined as a competitive equilibrium dissociation constant (κi) value. In this regard, the κi value was calculated from three individual curves and modified by using Prism (produced by GraphPad Software, Inc.).

T1 sequence (P20309 whole entry): as above

| SMILES | Total cell count in BALF (ICR mice [1]) | Neutrophil count in BALF (ICR mice [1]) | Neutrophil count in BALF (ICR mice [2]) | Total cell count in BALF (ICR mice [2]) | Binding to the M3 receptor (FIG. 1), in words [3] | Inflammatory factors in BALF (TNF-α, MIP-2, MCP-1, KC) (ICR mice [4]) | Concentration in lung tissue, (R)-Mep, 5 min. ([5]; 5 min after administration, (R)-Mep detected) | Concentration in lung tissue, (R)-Mep, 15 min. ([5]; 15 min after administration, (R)-Mep detected) | Concentration in lung tissue, (R)-Mep, 30 min. ([5]; 30 min after administration, (R)-Mep detected) | Effect of suppressing airway resistance (methacholine-induced), low dose (ICR mice [6]) | Level of constipation occurrence (fecal pellet output) (ICR mice [7]) | Effect of suppressing airway resistance (methacholine-induced) (ICR mice [8]) | Concentration in lung tissue, (S)-Mep, 5 min. ([5]; 5 min after administration, (S)-Mep detected) | Concentration in lung tissue, (S)-Mep, 15 min. ([5]; 15 min after administration, (S)-Mep detected) | Concentration in lung tissue, (S)-Mep, 30 min. ([5]; 30 min after administration, (S)-Mep detected) | Affinity to hM3R (M3 receptor), in words [9] |
| --- | --- | --- | --- | --- | --- | --- | --- | --- | --- | --- | --- | --- | --- | --- | --- | --- |
| C[N+]1(C)CCC[C@@H](OC(=O)C(O)(c2ccccc2)c2ccccc2)C1.[Br-] (racemic) [racemate, mepenzolate bromide, reference compound] | effect of decreasing | effect of decreasing | similarly effective | similarly effective | bound strongly to the M3 receptor | decreased inflammatory factors effectively |  |  |  |  |  |  |  |  |  |  |
| C[N+]1(C)CCC[C@@H](OC(=O)C(O)(c2ccccc2)c2ccccc2)C1.[Br-] [R-form, (3R)-3-[(hydroxy) (diphenyl)acetoxy]-1,1-dimethylpiperidinium bromide] | effect of decreasing | effect of decreasing | relatively stronger effect of decreasing | relatively stronger effect of decreasing | bound strongly to the M3 receptor | decreased inflammatory factors effectively | 44.5 ± 11.5 μg/lung | 6.3 ± 4.2 μg/lung | 5.1 ± 1.3 μg/lung | significant effect of suppressing airway resistance | highest level of constipation occurrence | significant effect of suppressing airway resistance |  |  |  |  |
| C[N+]1(C)CCC[C@H](OC(=O)C(O)(c2ccccc2)c2ccccc2)C1.[Br-] [S-form, (3S)-3-[(hydroxy) (diphenyl)acetoxy]-1,1-dimethylpiperidinium bromide] | effect of decreasing | effect of decreasing | similarly effective | similarly effective | weaker binding ability | decreased inflammatory factors effectively |  |  |  | little effect | low level of constipation occurrence | little effect | 36.4 ± 9.5 μg/lung | 7.6 ± 0.5 μg/lung | 6.2 ± 0.4 μg/lung | lower affinity |
